“And” between values parts separate entries of the source, which are not always exact repeats. Identical values can stand only once. Like-named read-outs stand apart in the source and are kept apart here.
Columns and labels:
[1] = rat tail-flick test; assay type: in vivo; conditions: for tail-flick: 20 mg/kg i.p.
Protocol: (§1) The analgesic action was detected in mouse, rat, guinea pig and dog. The mouse was subjected to hot plate and writhing tests; the rat to tail-flick and paw-pressure tests; the guinea pig to paw-pressure test only; the dog to the test described by Vainio et al. [J. Vet. Pharmacol. Ther., 12, 225-231 (1989)] using an electric stimulation. Consequently, the claimed compounds were tested with pain being induced by stimuli of different nature: thermal (hot plate and tail flick), chemical (writhing by acetic acid), mechanical (paw pressure) and electrical (cutaneous stimulation).
(§2) As already mentioned, the claimed products were assayed also in rat by the paw-pressure and tail-flick tests.
(§3) Both tests were carried out with the max. doses not impairing the rats normal behaviour. […] The painful stimulus utilized in the paw-pressure test involved the animal consciousness to a much greater extent than the stimulus used in the tail-flick test, in fact, the type and anatomic localization of the latter mainly involved a spinal response.
(§4) Both tests on rats were carried out with the max. doses not altering the behaviour of the treated animals.
The test was performed using th

[2] = assay type: in vivo, mouse; conditions: for ANALGESIC ACTIVITY (degree of analgesia, latency on hot plate): max. dose not affecting mice behaviour; for analgesic effect (AUC up to 45 min) compared with reference analgesics: mouse hot plate, FIG. 5, always (s.c. and i.p.); for Efficacy as analgesic (Morphine = 100), AUC (Area Under Curve) / Efficacy as analgesic (Morphine = 100), M.E. (Maximum Analgesic Effect): in vivo
Protocol: as §1
(§5) Potency, efficacy and toxicity of SM21, PG9 and SM32 in comparison with
(§6) four principal reference analgesic drugs tested in mouse. As analgesic

[3] = mouse rota-rod test (16 r.p.m.)
Excerpt: All products tested to detect their antinociceptive activity had been previously tested by the rota-rod test to determine their maximum utilizable dose in analgesic tests. In fact, by this test it is possible to determine the highest dose of drug not impairing the normal performance of animals in a test that simultaneously evaluates motor coordination, equilibrium, resistance to fatigue, and muscle strength. This test is meant to evaluate the capability of mice to stay balanced on a rotating rod [cf. Vaught et al., Neuropharmacology, 24 (3) 211-216 (1985)].
The calculated doses were those used in the two analgesic tests on mice.

[4] = rat paw-pressure test; assay type: in vivo; conditions: for paw-pressure: 20 mg/kg i.p.
Protocol: as §1, §2, §3, §4

[5] = mouse acetic acid writhing test; assay type: in vivo; conditions: for efficacy in writhing test, in words / number of writhes / Efficacy as analgesic (Morphine = 100) / percent inhibition: mouse; for number of writhes / Efficacy as analgesic (Morphine = 100) / percent inhibition: 40 mg/kg s.c.; for Efficacy as analgesic (Morphine = 100) / percent inhibition: writhing; for ED50: sc, mouse writhing
Protocol: as §1
The claimed molecules, chosen as examples, were also assayed in mice by the writhing test (Table 4). The test is meant to evaluate the products capability to prevent mice writhes ensuing abdominal pains caused by i.p. injection of a 0.6% aqueous solution of acetic acid.
Acetic acid solution = 0.6% v/v.

[6] = in vivo; conditions: mouse, sc
Excerpt: as §5, §6

[7] = guinea-pig paw-pressure test; assay type: in vivo; conditions: for paw-pressure: guinea-pig, 20 mg/kg i.p.
Protocol: as §1
Effect of SM21 and PG9 in guineapig pawpressure test. *P < 0.01; P < 0.0
in comparison with saline controls. The number of guineapig is in […]

[8] = paw-pressure test in rats with a lesion in the nucleus basalis magnocellularis (NBM); assay type: in vivo, rat; conditions: 30 mg/kg i.p.
Excerpt: 3. […] In fact, as known, the magnocellular basal nucleus destruction causes the degeneration of most central cholinergic system.

[9] = mouse, 40 mg/kg i.p., 15 min after treatment
[10] = mouse, 40 mg/kg i.p., 30 min after treatment
[11] = mouse, 40 mg/kg i.p., 45 min after treatment
[12] = mouse, 40 mg/kg s.c., 15 min after treatment
[13] = mouse, 40 mg/kg s.c., 30 min after treatment
[14] = mouse, 40 mg/kg s.c., 45 min after treatment
[15] = 40 mg/kg s.c., 15 min after treatment
[16] = 40 mg/kg s.c., 30 min after treatment
[17] = 40 mg/kg s.c., 45 min after treatment
[18] = 50 mg/kg s.c., 15 min after treatment
[19] = 50 mg/kg s.c., 30 min after treatment
[20] = 50 mg/kg s.c., 45 min after treatment

CC(C(=O)O[C@H]1C[C@H]2CC[C@@H](C1)N2C)c1ccc(Br)cc1 (stereo partly drawn) [PG-9, 3α-Tropanyl 2-(p-bromophenyl)-propionate]
activity in tail-flick test, in words [1]: inactive | tail-flick ([1]; 15 min after treatment): 3.3 ± 0.2 s | tail-flick ([1]; 30 min after treatment): 2.9 ± 0.4 s | tail-flick ([1]; 45 min after treatment): 3.0 ± 0.3 s | ANALGESIC ACTIVITY (degree of analgesia, latency on hot plate) [2]: ++++ (Latency above 35" ++++-) | analgesic activity in mouse, in words ([2]; mouse): active in mouse | analgesic effect (AUC up to 45 min) compared with reference analgesics [2]: always more active than all reference analgesics including morphine | Efficacy as analgesic (Morphine = 100), AUC (Area Under Curve) ([2]; mouse): 123 | Efficacy as analgesic (Morphine = 100), M.E. (Maximum Analgesic Effect) ([2]; mouse): 106 | hot-plate latency [2, 9]: 42.5 ± 2.5 s | hot-plate latency [2, 10]: 39.7 ± 2.1 s | hot-plate latency [2, 11]: 26.7 ± 3.5 s | hot-plate latency [2, 12]: 39.3 ± 3.4 s | hot-plate latency [2, 13]: 35.1 ± 2.8 s | hot-plate latency [2, 14]: 33.3 ± 2.6 s | rota-rod performance (number of falls in 30 s) [3, 15]: 1.2 ± 0.5 falls in 30 s | rota-rod performance (number of falls in 30 s) [3, 16]: 0.8 ± 0.4 falls in 30 s | rota-rod performance (number of falls in 30 s) [3, 17]: 1.3 ± 0.5 falls in 30 s | rota-rod performance (number of falls in 30 s) ([3]; 45 mg/kg s.c., 15 min after treatment): 2.4 ± 0.8 falls in 30 s | rota-rod performance (number of falls in 30 s) ([3]; 45 mg/kg s.c., 30 min after treatment): 1.3 ± 0.5 falls in 30 s | rota-rod performance (number of falls in 30 s) ([3]; 45 mg/kg s.c., 45 min after treatment): 0.8 ± 0.4 falls in 30 s | rota-rod performance (number of falls in 30 s) [3, 18]: 2.2 ± 0.6 falls in 30 s | rota-rod performance (number of falls in 30 s) [3, 19]: 2.7 ± 0.6 falls in 30 s | rota-rod performance (number of falls in 30 s) [3, 20]: 2.8 ± 0.4 falls in 30 s | activity in paw-pressure test, in words [4]: inactive in rat | paw-pressure ([4]; 15 min after treatment): 62.2 ± 6.0 g | paw-pressure ([4]; 30 min after treatment): 62.4 ± 4.8 g | paw-pressure ([4]; 45 min after treatment): 62.8 ± 4.2 g | efficacy in writhing test, in words [5]: less efficacious than ketorolac, are more efficacious than morphine | number of writhes [5]: 6.1 ± 1.6 | Efficacy as analgesic (Morphine = 100) [5]: 110 | percent inhibition [5]: 82.2% | ED50 [5]: 16.3 mg/kg and 34.8 µmol/kg | LD50 [6]: 373 µmol/kg | analgesic activity in guinea pig, in words ([7]; guinea pig): active in guinea pig | paw-pressure ([7]; 15 min after treatment): 94.6 ± 4.4 g | paw-pressure ([7]; 30 min after treatment): 83.0 ± 6.8 g | paw-pressure ([7]; 45 min after treatment): 42.8 ± 5.6 g

CCC(Oc1ccc(Cl)cc1)C(=O)O[C@H]1C[C@H]2CC[C@@H](C1)N2C (stereo partly drawn) [SM-21, 3α-Tropanyl 2-(p-chlorophenoxy)-butyrate]
activity in tail-flick test, in words [1]: active | tail-flick ([1]; 15 min after treatment): 3.6 ± 0.2 s | tail-flick ([1]; 30 min after treatment): 4.6 ± 0.4 s | tail-flick ([1]; 45 min after treatment): 4.9 ± 0.4 s | ANALGESIC ACTIVITY (degree of analgesia, latency on hot plate) [2]: ++++ (Latency above 35" ++++-) | analgesic effect (AUC up to 45 min) compared with reference analgesics [2]: always more active than all reference analgesics including morphine | Efficacy as analgesic (Morphine = 100), AUC (Area Under Curve) ([2]; mouse): 111 | Efficacy as analgesic (Morphine = 100), M.E. (Maximum Analgesic Effect) ([2]; mouse): 111 | hot-plate latency [2, 9]: 36.7 ± 2.1 s | hot-plate latency [2, 10]: 32.0 ± 2.2 s | hot-plate latency [2, 11]: 25.9 ± 2.7 s | hot-plate latency [2, 12]: 38.9 ± 2.9 s | hot-plate latency [2, 13]: 31.3 ± 2.5 s | hot-plate latency [2, 14]: 29.4 ± 3.3 s | rota-rod performance (number of falls in 30 s) ([3]; 30 mg/kg s.c., 15 min after treatment): 1.9 ± 0.3 falls in 30 s | rota-rod performance (number of falls in 30 s) ([3]; 30 mg/kg s.c., 30 min after treatment): 1.5 ± 0.5 falls in 30 s | rota-rod performance (number of falls in 30 s) ([3]; 30 mg/kg s.c., 45 min after treatment): 1.2 ± 0.5 falls in 30 s | rota-rod performance (number of falls in 30 s) [3, 15]: 1.6 ± 0.6 falls in 30 s | rota-rod performance (number of falls in 30 s) [3, 16]: 1.2 ± 0.4 falls in 30 s | rota-rod performance (number of falls in 30 s) [3, 17]: 1.2 ± 0.4 falls in 30 s | rota-rod performance (number of falls in 30 s) [3, 18]: 2.2 ± 0.4 falls in 30 s | rota-rod performance (number of falls in 30 s) [3, 19]: 2.6 ± 0.5 falls in 30 s | rota-rod performance (number of falls in 30 s) [3, 20]: 2.4 ± 0.5 falls in 30 s | rota-rod performance (number of falls in 30 s) ([3]; 60 mg/kg s.c., 15 min after treatment): 3.5 ± 0.5 falls in 30 s | rota-rod performance (number of falls in 30 s) ([3]; 60 mg/kg s.c., 30 min after treatment): 4.3 ± 0.4 falls in 30 s | rota-rod performance (number of falls in 30 s) ([3]; 60 mg/kg s.c., 45 min after treatment): 4.4 ± 0.6 falls in 30 s | activity in paw-pressure test, in words [4]: almost equivalent analgesia | paw-pressure ([4]; 15 min after treatment): 93.1 ± 4.0 g | paw-pressure ([4]; 30 min after treatment): 93.4 ± 5.4 g | paw-pressure ([4]; 45 min after treatment): 92.3 ± 6.4 g | efficacy in writhing test, in words [5]: slightly inferior to morphine | number of writhes [5]: 11.4 ± 1.6 | Efficacy as analgesic (Morphine = 100) [5]: 90 | percent inhibition [5]: 67.3% | ED50 [5]: 21.5 mg/kg and 47.4 µmol/kg | LD50 [6]: 883 µmol/kg | paw-pressure ([7]; 15 min after treatment): 92.8 ± 4.0 g | paw-pressure ([7]; 30 min after treatment): 110.0 ± 6.6 g | paw-pressure ([7]; 45 min after treatment): 64.0 ± 6.2 g | paw-pressure ([8]; lesioned (NBM) rats, 15 min after treatment): 75.1 ± 5.8 g | paw-pressure ([8]; lesioned (NBM) rats, 30 min after treatment): 68.3 ± 4.9 g | paw-pressure ([8]; lesioned (NBM) rats, 45 min after treatment): 67.2 ± 3.9 g | paw-pressure ([8]; naive rats, 15 min after treatment): 109.6 ± 4.8 g | paw-pressure ([8]; naive rats, 30 min after treatment): 87.5 ± 5.2 g | paw-pressure ([8]; naive rats, 45 min after treatment): 67.8 ± 4.4 g | paw-pressure ([8]; sham rats, 15 min after treatment): 104.9 ± 4.6 g | paw-pressure ([8]; sham rats, 30 min after treatment): 93.4 ± 5.3 g | paw-pressure ([8]; sham rats, 45 min after treatment): 63.9 ± 5.1 g

— patent publication US5583142A, “Analgesic and nootropic drugs” (priority 1992, dated 1996)
